Experimental data from patent US20030186967A1, “Acylresorcinol derivatives are selective vitronectin receptor inhibitors” (American Home Products Corporation, priority 1998, published 2003).

Biological target: T1, Vitronectin receptor αVβ3 (Homo sapiens, UniProt P05106+P06756)
T1 construct: expressed in transfected cells; host or cells: 512P5 cells (plasma membrane preparation)
Test: Vitronectin Receptor αVβ3 Binding Assay
Settings: read-out: VnR (IC50μM)

T1 sequence (P06756 31-889 limits assumed): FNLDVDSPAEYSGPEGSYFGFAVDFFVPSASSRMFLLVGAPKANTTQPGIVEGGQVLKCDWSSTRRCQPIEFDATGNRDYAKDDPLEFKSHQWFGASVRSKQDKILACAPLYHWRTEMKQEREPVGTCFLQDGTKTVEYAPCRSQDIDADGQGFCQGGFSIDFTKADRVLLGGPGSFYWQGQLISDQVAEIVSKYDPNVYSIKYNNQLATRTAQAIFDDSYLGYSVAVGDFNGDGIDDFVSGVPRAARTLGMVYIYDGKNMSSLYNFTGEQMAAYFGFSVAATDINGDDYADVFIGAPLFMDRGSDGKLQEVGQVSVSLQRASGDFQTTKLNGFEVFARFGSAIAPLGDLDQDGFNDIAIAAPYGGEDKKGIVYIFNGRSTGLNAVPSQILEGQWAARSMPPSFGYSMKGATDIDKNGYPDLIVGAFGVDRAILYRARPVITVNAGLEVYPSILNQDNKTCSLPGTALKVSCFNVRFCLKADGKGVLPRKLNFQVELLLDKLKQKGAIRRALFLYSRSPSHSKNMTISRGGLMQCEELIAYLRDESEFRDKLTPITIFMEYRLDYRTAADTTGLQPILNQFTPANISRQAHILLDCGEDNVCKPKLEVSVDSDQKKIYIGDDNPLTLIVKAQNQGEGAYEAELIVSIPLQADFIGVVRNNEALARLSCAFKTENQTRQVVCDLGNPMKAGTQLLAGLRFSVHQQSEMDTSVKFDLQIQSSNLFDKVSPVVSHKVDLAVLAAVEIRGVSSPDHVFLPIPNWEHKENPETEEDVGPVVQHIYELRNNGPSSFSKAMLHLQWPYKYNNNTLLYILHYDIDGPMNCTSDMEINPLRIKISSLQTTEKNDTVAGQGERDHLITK
T1 sequence (P06756 891-1048 partner limits assumed): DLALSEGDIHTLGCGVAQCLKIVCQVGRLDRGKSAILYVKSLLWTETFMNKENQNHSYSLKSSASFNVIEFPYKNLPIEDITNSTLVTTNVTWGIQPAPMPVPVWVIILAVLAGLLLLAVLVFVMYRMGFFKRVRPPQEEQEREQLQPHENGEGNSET
T1 sequence (P05106 27-788): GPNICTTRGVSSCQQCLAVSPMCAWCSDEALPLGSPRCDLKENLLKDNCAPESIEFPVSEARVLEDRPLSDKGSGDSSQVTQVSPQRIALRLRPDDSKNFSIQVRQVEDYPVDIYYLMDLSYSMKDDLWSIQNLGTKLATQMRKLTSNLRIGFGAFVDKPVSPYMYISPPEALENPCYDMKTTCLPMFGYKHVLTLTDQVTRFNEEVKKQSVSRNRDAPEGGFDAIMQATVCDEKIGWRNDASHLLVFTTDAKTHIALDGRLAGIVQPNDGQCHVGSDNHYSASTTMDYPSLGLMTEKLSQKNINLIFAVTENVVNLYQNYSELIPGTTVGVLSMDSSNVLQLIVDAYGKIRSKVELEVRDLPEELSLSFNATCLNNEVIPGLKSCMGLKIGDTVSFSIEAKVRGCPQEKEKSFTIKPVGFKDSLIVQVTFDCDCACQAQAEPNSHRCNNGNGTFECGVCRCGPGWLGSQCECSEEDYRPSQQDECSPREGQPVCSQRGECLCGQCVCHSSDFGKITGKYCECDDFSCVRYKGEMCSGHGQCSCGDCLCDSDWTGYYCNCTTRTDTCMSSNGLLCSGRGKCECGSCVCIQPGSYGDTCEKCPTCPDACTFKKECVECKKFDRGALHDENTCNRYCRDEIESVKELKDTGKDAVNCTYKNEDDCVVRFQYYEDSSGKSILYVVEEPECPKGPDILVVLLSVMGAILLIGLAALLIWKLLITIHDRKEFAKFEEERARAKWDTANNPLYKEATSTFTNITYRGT

First: Cc1cc(C(=O)N[C@@H](CNC(=O)c2ccc(OCCNC3=NCCN3)cc2O)C(=O)O)c(C)o1 [Example 137, (2S)-3-({4-[2-(4,5-dihydro-1H-imidazol-2-ylamino)ethoxy]-2-hydroxybenzoyl}-amino)-2-[(2,5-dimethyl-3-furoyl)amino]propanoic acid]
Second: Cc1cccc(C(=O)N[C@@H](CNC(=O)c2ccc(OCCNC3=NCCN3)cc2O)C(=O)O)c1C [Example 140, (2S)-3-({4-[2-(4,5-dihydro-1H-imidazol-2-ylamino)ethoxy]-2-hydroxybenzoyl}-amino)-2-[(2,3-dimethylbenzoyl)amino]propanoic acid]
The IC50 of the first is higher: over 1 µM for the first, 0.0978 µM for the second.

First: O=C(NC[C@H](NC(=O)c1ccccc1Br)C(=O)O)c1ccc(OCCNC2=NCCN2)cc1O [Example 138]
Second: O=C(N[C@@H](CNC(=O)c1ccc(OCCNC2=NCCN2)cc1O)C(=O)O)c1ccc(Br)cc1 [Example 139, (2S)-2-[(4-bromobenzoyl)amino]-3-({4-[2-(4,5-dihydro-1H-imidazol-2-ylamino)ethoxy]-2-hydroxybenzoyl}amino)propanoic acid]
The IC50 of the first is lower: 0.361 µM for the first, over 1 µM for the second.

O=C(N[C@@H](CNC(=O)c1ccc(OCCNC2=NCCN2)cc1O)C(=O)O)c1cccc(Cl)c1 [Example 141, (2S)-2-[(3-chlorobenzoyl)amino]-3-({4-[2-(4,5-dihydro-1H-imidazol-2-ylamino)-ethoxy]-2-hydroxybenzoyl}amino)propanoic acid] and O=C(N[C@@H](CNC(=O)c1ccc(OCCNC2=NCCCCC2)cc1O)C(=O)O)OCc1ccccc1 [Example 143, (2S)-2-{[(benzyloxy)carbonyl]amino}-3-({2-hydroxy-4-[2-(3,4,5,6-tetrahydro-2-azepin-7-ylamino)ethoxy]benzoyl}amino)propanoic acid] cannot be ordered by IC50: over 1 µM for the first, 4.79 µM for the second.

CC(C)(C)COC(=O)N[C@@H](CNC(=O)c1ccc(OCCNC2=NCCCCC2)cc1O)C(=O)O [Example 142, (2S)-3-({2-hydroxy-4-[2-(3,4,5,6-tetrahydro-2H-azepin-7-ylamino)ethoxy]benzoyl}amino)-2-{[(neopentyloxy)carbonyl]amino}propanoic acid] and O=C(N[C@@H](CNC(=O)c1ccc(OCCNC2=NCCCCC2)cc1O)C(=O)O)OCC(Cl)(Cl)Cl [Example 153, (2S)-3-({2-hydroxy-4-[2-(3,4,5,6-tetrahydro-2H-azepin-7-ylamino)ethoxy]benzoyl}-amino)-2-{[(2,2,2-trichloroethoxy)carbonyl]amino}propanoic acid] are within 1.5-fold of each other in IC50: 1.6 µM for the first, 2.4 µM for the second.

First: CC(C)(C)COC(=O)N[C@@H](CNC(=O)c1ccc(OCCNC(=N)N)cc1O)C(=O)O [Example 156, (2S)-3-{[4-(2-{[amino(imino)methyl]amino}ethoxy)-2-hydroxy-benzoyl]amino}-2-{[(neopentyloxy)carbonyl]amino}propanoic acid]
Second: CCOC(=O)N[C@@H](CNC(=O)c1ccc(OCCNC(=N)N)cc1O)C(=O)O [Example 159, (2S)-3-{[4-(2-{[amino(imino)methyl]amino)ethoxy)-2-hydroxybenzoyl]amino}-2-[(ethoxycarbonyl)amino]propanoic acid]
The IC50 of the first is 8-fold lower: 0.25 µM for the first, 2 µM for the second. The first is the more potent here.

First: COC(=O)N[C@@H](CNC(=O)c1ccc(OCCNC(=N)N)cc1O)C(=O)O [Example 158, (2S)-3-{[4-(2-{[amino(imino)methyl]amino)ethoxy)-2-hydroxybenzoyl]amino}-2-[(methoxycarbonyl)amino]propanoic acid]
Second: CC(C)OC(=O)N[C@@H](CNC(=O)c1ccc(OCCNC(=N)N)cc1O)C(=O)O [Example 161, (2S)-3-{[4-(2-{[amino(imino)methyl]amino}ethoxy)-2-hydroxybenzoyl]amino}-2-[(isopropoxycarbonyl)amino]propanoic acid]
The IC50 of the first is 5.1-fold higher: 4.6 µM for the first, 0.9 µM for the second. The second is the more potent here.

Compared with CCCOC(=O)N[C@@H](CNC(=O)c1ccc(OCCNC(=N)N)cc1O)C(=O)O [Example 160, (2S)-3-{[4-(2-{[amino(imino)methyl]amino}ethoxy)-2-hydroxybenzoyl]amino}-2-[(propoxycarbonyl)amino]propanoic acid], CCCCOC(=O)N[C@@H](CNC(=O)c1ccc(OCCNC(=N)N)cc1O)C(=O)O [Example 164, (2S)-3-{[4-(2-{[amino(imino)methyl]amino}ethoxy)-2-hydroxybenzoyl]amino}-2-[(butoxycarbonyl)amino]propanoic acid] is 1.6-fold lower in IC50: 0.97 µM for the first, 0.61 µM for the second. The second is the more potent here.

C=CCOC(=O)N[C@@H](CNC(=O)c1ccc(OCCNC(=N)N)cc1O)C(=O)O [Example 162] and C=CCCOC(=O)N[C@@H](CNC(=O)c1ccc(OCCNC(=N)N)cc1O)C(=O)O [Example 163, (2S)-3-{[4-(2-{[amino(imino)methyl]amino}ethoxy)-2-hydroxybenzoyl]amino}-2-{[(but-3-enyloxy)carbonyl]amino}propanoic acid] are the same in IC50: 1.1 µM for the first, 1.1 µM for the second.

First: N=C(N)NCCOc1ccc(C(=O)NC[C@H](NC(=O)OCC(Cl)(Cl)Cl)C(=O)O)c(O)c1 [Example 165, (2S)-3-{[4-(2-{[amino(imino)methyl]amino}ethoxy)-2-hydroxybenzoyl]amino}-2-{[(2,2,2-trichloroethoxy)carbonyl]amino}propanoic acid]
Second: C#CCOC(=O)N[C@@H](CNC(=O)c1ccc(OCCNC(=N)N)cc1O)C(=O)O [Example 167, (2S)-3-{[4-(2-{[amino(imino)methyl]amino}ethoxy)-2-hydroxybenzoyl]amino}-2-{[(prop-2-ynyloxy)carbonyl]amino}propanoic acid]
The IC50 of the first is 6.7-fold lower: 0.39 µM for the first, 2.6 µM for the second.

First: CCCCCCOC(=O)N[C@@H](CNC(=O)c1ccc(OCCNC(=N)N)cc1O)C(=O)O [Example 166, (2S)-3-{[4-(2-{[amino(imino)methyl]amino}ethoxy)-2-hydroxybenzoyl]amino}-2-{[(hexyloxy)carbonyl]amino}propanoic acid]
Second: CCCCCCCCNC(=O)N[C@@H](CNC(=O)c1ccc(OCCNC(=N)N)cc1O)C(=O)O [Example 187, (2S)-3-{[4-(2-{[amino(imino)methyl]amino}ethoxy)-2-hydroxybenzoyl]amino}-2-{[(octylamino)carbonyl]amino}propanoic acid]
The IC50 of the first is 24-fold lower: 0.8 µM for the first, 19.5 µM for the second.

Cc1ccccc1NC(=O)N[C@@H](CNC(=O)c1ccc(OCCNC(=N)N)cc1O)C(=O)O [Example 173, (2S)-3-{[4-(2-{[amino(imino)methyl]amino}ethoxy)-2-hydroxybenzoyl]amino}-2-[(2-toluidinocarbonyl)amino]propanoic acid] and N=C(N)NCCOc1ccc(C(=O)NC[C@H](NC(=O)Nc2ccccc2Cl)C(=O)O)c(O)c1 [Example 175, (2S)-3-{[4-(2-{[amino(imino)methyl]amino}ethoxy)-2-hydroxybenzoyl]amino}-2-{[(2-chloroanilino)carbonyl]amino}propanoic acid] are within 1.5-fold of each other in IC50: 4.28 µM for the first, 3.8 µM for the second.

Going from COc1ccccc1NC(=O)N[C@@H](CNC(=O)c1ccc(OCCNC(=N)N)cc1O)C(=O)O [Example 174, (2S)-3-{[4-(2-{[amino(imino)methyl]amino}ethoxy)-2-hydroxybenzoyl]amino}-2-{[(2-methoxyanilino)carbonyl]amino}propanoic acid] to N=C(N)NCCOc1ccc(C(=O)NC[C@H](NC(=O)Nc2ccccc2Br)C(=O)O)c(O)c1 [Example 176, (2S)-3-{[4-(2-{[amino(imino)methyl]amino}ethoxy)-2-hydroxybenzoyl]amino}-2-{[(2-bromoanilino)carbonyl]amino}propanoic acid], the IC50 falls from 3.89 µM to 2.14 µM (1.8-fold). The second is the more potent here.

Compared with N=C(N)NCCOc1ccc(C(=O)NC[C@H](NC(=O)Nc2ccccc2-c2ccccc2)C(=O)O)c(O)c1 [Example 177], N=C(N)NCCOc1ccc(C(=O)NC[C@H](NC(=O)Nc2cccc3ccccc23)C(=O)O)c(O)c1 [Example 184, (2S)-3-{[4-(2-{[amino(imino)methyl]amino}ethoxy)-2-hydroxybenzoyl]amino}-2-{[(1-naphthylamino)carbonyl]amino}propanoic acid] is 3.7-fold higher in IC50: 4.87 µM for the first, 17.9 µM for the second.

First: Cc1ccc(NC(=O)N[C@@H](CNC(=O)c2ccc(OCCNC(=N)N)cc2O)C(=O)O)cc1 [Example 178, (2S)-3-{[4-(2-{[amino(imino)methyl]amino}ethoxy)-2-hydroxybenzoyl]amino}-2-[(4-toluidinocarbonyl)amino]propanoic acid]
Second: N=C(N)NCCOc1ccc(C(=O)NC[C@H](NC(=O)Nc2ccc(Cl)cc2)C(=O)O)c(O)c1 [Example 180, (2S)-3-{[4-(2-{[amino(imino)methyl]amino}ethoxy)-2-hydroxybenzoyl]amino}-2-{[(4-chloroanilino)carbonyl]amino}propanoic acid]
The IC50 of the first is 6.2-fold lower: 3.13 µM for the first, 19.5 µM for the second. The first is the more potent here.

N=C(N)NCCOc1ccc(C(=O)NC[C@H](NC(=O)Nc2ccc(OC(F)(F)F)cc2)C(=O)O)c(O)c1 [Example 179, (2S)-3-{[4-(2-{[amino(imino)methyl]amino}ethoxy)-2-hydroxybenzoyl]amino}-2-({[4-(trifluoromethoxy)anilino]carbonyl}amino)propanoic acid] and N=C(N)NCCOc1ccc(C(=O)NC[C@H](NC(=O)Nc2ccc(F)cc2)C(=O)O)c(O)c1 [Example 181, (2S)-3-{[4-(2-{[amino(imino)methyl]amino}ethoxy)-2-hydroxybenzoyl]amino}-2-{[(4-fluoroanilino)carbonyl]amino}propanoic acid] cannot be ordered by IC50: over 1 µM for the first, 19.7 µM for the second.

First: CC(=O)c1ccc(NC(=O)N[C@@H](CNC(=O)c2ccc(OCCNC(=N)N)cc2O)C(=O)O)cc1 [Example 182, (2S)-2-{[(4-acetylanilino)carbonyl]amino}-3-{[4-(2-{[amino(imino)methyl]-amino}ethoxy)-2-hydroxybenzoyl]amino}propanoic acid]
Second: N=C(N)NCCOc1ccc(C(=O)NC[C@H](NC(=O)NCc2ccccc2)C(=O)O)c(O)c1 [Example 185, (2S)-3-{[4-(2-{[amino(imino)methyl]amino}ethoxy)-2-hydroxybenzoyl]amino}-2-{[(benzylamino)carbonyl]amino}propanoic acid]
The IC50 of the first is 8.9-fold higher: 40.9 µM for the first, 4.57 µM for the second.

N=C(N)NCCOc1ccc(C(=O)NC[C@H](NC(=O)NC2CCCCC2)C(=O)O)c(O)c1 [Example 183, (2S)-3-{[4-(2-{[amino(imino)methyl]amino}ethoxy)-2-hydroxybenzoyl]amino}-2-{[(cyclohexylamino)carbonyl]amino}propanoic acid] and N=C(N)NCCOc1ccc(C(=O)NC[C@H](NC(=O)NCCc2ccccc2)C(=O)O)c(O)c1 [Example 186] are within 1.5-fold of each other in IC50: 4.98 µM for the first, 6.99 µM for the second.
